Measured values as given in publication doi:10.1101/2024.08.19.608619, “Discovery of potent SARS-CoV-2 nsp3 macrodomain inhibitors uncovers lack of translation to cellular antiviral response” (bioRxiv, 2024).
Read-outs that look alike come from different tables or passages of the source.

What was measured:
SARS-CoV-2 nsp3-mac1 [1] = target: T1, SARS-CoV-2 nsp3-mac1 (Severe acute respiratory syndrome coronavirus 2, UniProt P0DTD1); assay: biochemical; assay type: biochemical; conditions: SARS-CoV-2 nsp3 macrodomain TR-FRET single point
SARS-CoV-2 nsp3-mac1 [2] = target: T1, SARS-CoV-2 nsp3-mac1; assay: biochemical; design: SARS-CoV-2 nsp3 macrodomain TR-FRET single point, per cent inhibition, n=2
[3] = read-out: perc_inhibition_mean, batch_name=ASAP-0000408-001
[4] = read-out: perc_inhibition_mean, batch_name=ASAP-0000310-001
[5] = read-out: perc_inhibition_mean, batch_name=ASAP-0000279-001
[6] = read-out: perc_inhibition_mean, batch_name=ASAP-0000337-001
[7] = read-out: perc_inhibition_mean, batch_name=ASAP-0000264-001
[8] = read-out: perc_inhibition_mean, batch_name=ASAP-0000410-001
[9] = read-out: perc_inhibition_mean, batch_name=ASAP-0000358-001
[10] = read-out: perc_inhibition_mean, batch_name=ASAP-0000344-001
[11] = read-out: perc_inhibition_mean, batch_name=ASAP-0000400-001
[12] = read-out: perc_inhibition_mean, batch_name=ASAP-0000419-001

With `O=C(CCN(Cc1cccc(Cl)c1)C(=O)[C@@H]1CC1(F)F)N1CCNCC1` [ASAP-0000408] the perc_inhibition_mean (SARS-CoV-2 nsp3-mac1 [1]; concentration 49.75 uM) was -2.073%, the perc_inhibition_mean (SARS-CoV-2 nsp3-mac1 [1]; concentration 99.5 uM) was -3.764% and the inhibition at 49.75 µM (SARS-CoV-2 nsp3-mac1 [2]; [3]) was -2.07%. For the same molecule, the inhibition at 99.5 µM (SARS-CoV-2 nsp3-mac1 [2]; [3]) was -3.76%.

`O=C(O)c1sccc1C(=O)N1CCC(c2ccn3ncc(C(=O)N4CCCCC4)c3c2)CC1` [ASAP-0000310] gave a perc_inhibition_mean (SARS-CoV-2 nsp3-mac1 [1]; concentration 49.75 uM, n=2) of 55.49%, a perc_inhibition_mean (SARS-CoV-2 nsp3-mac1 [1]; concentration 99.5 uM, n=2) of 71.528% and an inhibition at 49.75 µM (SARS-CoV-2 nsp3-mac1 [2]; [4]) of 55.5%. The inhibition at 99.5 µM (SARS-CoV-2 nsp3-mac1 [2]; [4]) was 71.5%.

`FC(F)(F)c1nnc2n1CCN(c1ncnc3[nH]ccc13)C2` [ASAP-0000279] was tested, and the perc_inhibition_mean (SARS-CoV-2 nsp3-mac1 [1]; concentration 49.75 uM, n=2) was -1.969%, the perc_inhibition_mean (SARS-CoV-2 nsp3-mac1 [1]; concentration 99.5 uM, n=2) was -1.005% and the inhibition at 49.75 µM (SARS-CoV-2 nsp3-mac1 [2]; [5]) was -1.97%. The inhibition at 99.5 µM (SARS-CoV-2 nsp3-mac1 [2]; [5]) was -1%.

Molecule `Cc1ccnc(C2CCN(c3ncnc4[nH]ccc34)CC2)n1` [ASAP-0000050] has a perc_inhibition_mean (SARS-CoV-2 nsp3-mac1 [1]; concentration 50.0 uM) of 3.465% and an inhibition at 50 µM (SARS-CoV-2 nsp3-mac1 [2]; read-out: perc_inhibition_mean, batch_name=ASAP-0000050-001) of 3.46%.

`Cc1[nH]c2ncnc(NC(=O)[C@@H]3CCO[C@@H]3C)c2c1C` [ASAP-0000090] was tested, and the perc_inhibition_mean (SARS-CoV-2 nsp3-mac1 [1]; concentration 50.0 uM) was 35.092% and the inhibition at 50 µM (SARS-CoV-2 nsp3-mac1 [2]; read-out: perc_inhibition_mean, batch_name=ASAP-0000090-001) was 35.1%.

With `CC(C)(c1noc(-c2ncnc3[nH]ccc23)n1)S(C)(=O)=O` [ASAP-0000033] the perc_inhibition_mean (SARS-CoV-2 nsp3-mac1 [1]; concentration 50.0 uM) was -0.756% and the inhibition at 50 µM (SARS-CoV-2 nsp3-mac1 [2]; read-out: perc_inhibition_mean, batch_name=ASAP-0000033-001) was -0.756%.

`O=C(NCC1(O)CCOCC1)c1cnn2ccc(C3CCN(C(=O)c4ccccc4)CC3)cc12` [ASAP-0000337] was tested, and the perc_inhibition_mean (SARS-CoV-2 nsp3-mac1 [1]; concentration 49.75 uM, n=2) was -3.965%, the perc_inhibition_mean (SARS-CoV-2 nsp3-mac1 [1]; concentration 99.5 uM, n=2) was -1.103% and the inhibition at 49.75 µM (SARS-CoV-2 nsp3-mac1 [2]; [6]) was -3.96%. The inhibition at 99.5 µM (SARS-CoV-2 nsp3-mac1 [2]; [6]) was -1.1%.

Work on `Cn1ncc2c(NCc3ncccc3O)ncnc21` [ASAP-0000096] yielded a perc_inhibition_mean (SARS-CoV-2 nsp3-mac1 [1]; concentration 50.0 uM) of 3.893% and an inhibition at 50 µM (SARS-CoV-2 nsp3-mac1 [2]; read-out: perc_inhibition_mean, batch_name=ASAP-0000096-001) of 3.89%.

`COc1ccc(Nc2ncnc3[nH]ncc23)c(OC)c1` [ASAP-0000086] showed a perc_inhibition_mean (SARS-CoV-2 nsp3-mac1 [1]; concentration 50.0 uM) of 2.597% and an inhibition at 50 µM (SARS-CoV-2 nsp3-mac1 [2]; read-out: perc_inhibition_mean, batch_name=ASAP-0000086-001) of 2.6%.

`Oc1ccccc1CNc1ncnc2[nH]cnc12` [ASAP-0000083] was tested, and the perc_inhibition_mean (SARS-CoV-2 nsp3-mac1 [1]; concentration 50.0 uM) was 1.904% and the inhibition at 50 µM (SARS-CoV-2 nsp3-mac1 [2]; read-out: perc_inhibition_mean, batch_name=ASAP-0000083-001) was 1.9%.

`Cc1nc(NC(=O)c2nccc3ccncc23)c2cc[nH]c2n1` [ASAP-0000264] gave a perc_inhibition_mean (SARS-CoV-2 nsp3-mac1 [1]; concentration 50.0 uM, n=2) of -5.834%, a perc_inhibition_mean (SARS-CoV-2 nsp3-mac1 [1]; concentration 100.0 uM, n=2) of 2.611% and an inhibition at 50 µM (SARS-CoV-2 nsp3-mac1 [2]; [7]) of -5.83%. For the same molecule, the inhibition at 100 µM (SARS-CoV-2 nsp3-mac1 [2]; [7]) was 2.61%.

Molecule `Cc1cccc(Cl)c1-n1sc(=O)n(CC2CC2)c1=O` [ASAP-0000110] has a perc_inhibition_mean (SARS-CoV-2 nsp3-mac1 [1]; concentration 50.0 uM) of 51.933% and an inhibition at 50 µM (SARS-CoV-2 nsp3-mac1 [2]; read-out: perc_inhibition_mean, batch_name=ASAP-0000110-001) of 51.9%.

`Cc1nsc(N(C)C(=O)c2cnn3ccc(C4CCN(C(=O)c5ccccc5)CC4)cc23)n1` [ASAP-0000410] was tested, and the perc_inhibition_mean (SARS-CoV-2 nsp3-mac1 [1]; concentration 49.75 uM) was -10.512%, the perc_inhibition_mean (SARS-CoV-2 nsp3-mac1 [1]; concentration 99.5 uM) was -11.519% and the inhibition at 49.75 µM (SARS-CoV-2 nsp3-mac1 [2]; [8]) was -10.5%. The inhibition at 99.5 µM (SARS-CoV-2 nsp3-mac1 [2]; [8]) was -11.5%.

`Cc1ccc(C(=O)N2CCC(c3ccn4ncc(C(=O)N5CCCCC5)c4c3)CC2)c(=O)[nH]1` [ASAP-0000358] gave a perc_inhibition_mean (SARS-CoV-2 nsp3-mac1 [1]; concentration 49.75 uM) of 3.307%, a perc_inhibition_mean (SARS-CoV-2 nsp3-mac1 [1]; concentration 99.5 uM) of 3.662% and an inhibition at 49.75 µM (SARS-CoV-2 nsp3-mac1 [2]; [9]) of 3.31%. For the same molecule, the inhibition at 99.5 µM (SARS-CoV-2 nsp3-mac1 [2]; [9]) was 3.66%.

For `O=C(CCN(Cc1cccc(Cl)c1)C(=O)[C@H]1C[C@H](O)C1)N1CCNCC1` [ASAP-0000344], the perc_inhibition_mean (SARS-CoV-2 nsp3-mac1 [1]; concentration 49.75 uM, n=2) was -2.133%, the perc_inhibition_mean (SARS-CoV-2 nsp3-mac1 [1]; concentration 99.5 uM, n=2) was -3.766% and the inhibition at 49.75 µM (SARS-CoV-2 nsp3-mac1 [2]; [10]) was -2.13%. For the same molecule, the inhibition at 99.5 µM (SARS-CoV-2 nsp3-mac1 [2]; [10]) was -3.77%.

In the case of `CC(C)(CCNc1ncnc2[nH]ccc12)S(C)(=O)=O` [ASAP-0000004], the perc_inhibition_mean (SARS-CoV-2 nsp3-mac1 [1]; concentration 50.0 uM) is reported as 0.75% and the inhibition at 50 µM (SARS-CoV-2 nsp3-mac1 [2]; read-out: perc_inhibition_mean, batch_name=ASAP-0000004-001) is reported as 0.75%.

With `O=C(Cc1n[nH]c2c1CCCC2)Nc1cnc2[nH]ncc2c1` [ASAP-0000042] the perc_inhibition_mean (SARS-CoV-2 nsp3-mac1 [1]; concentration 50.0 uM) was -1.262% and the inhibition at 50 µM (SARS-CoV-2 nsp3-mac1 [2]; read-out: perc_inhibition_mean, batch_name=ASAP-0000042-001) was -1.26%.

Molecule `Cc1cc(CNC(=O)c2cnn3ccc(C4CCN(C(=O)c5ccccc5)CC4)cc23)n(C)n1` [ASAP-0000400] has a perc_inhibition_mean (SARS-CoV-2 nsp3-mac1 [1]; concentration 49.75 uM) of -5.508%, a perc_inhibition_mean (SARS-CoV-2 nsp3-mac1 [1]; concentration 99.5 uM) of -8.125% and an inhibition at 49.75 µM (SARS-CoV-2 nsp3-mac1 [2]; [11]) of -5.51%. It also gave an inhibition at 99.5 µM (SARS-CoV-2 nsp3-mac1 [2]; [11]) of -8.12%.

With `O=C(c1nc(=O)[nH][nH]1)N1CCC(c2ccn3ncc(C(=O)N4CCCCC4)c3c2)CC1` [ASAP-0000419] the perc_inhibition_mean (SARS-CoV-2 nsp3-mac1 [1]; concentration 49.75 uM) was 23.445%, the perc_inhibition_mean (SARS-CoV-2 nsp3-mac1 [1]; concentration 99.5 uM) was 34.579% and the inhibition at 49.75 µM (SARS-CoV-2 nsp3-mac1 [2]; [12]) was 23.4%. The inhibition at 99.5 µM (SARS-CoV-2 nsp3-mac1 [2]; [12]) was 34.6%.
